These are literature values, as cited in patent US20110118355A1, “TREATMENT OF MIGRAINE HEADACHES USING ANTIESTROGENS” (priority 2007, published 2011).

For the data set the following is noted: one person, no aura, headache accompanied by fever; Letter to the Editor, Headache 32:315 (1992).

SMILES strings stand for the structures.

As to `CCN(CC)CCOc1ccc(C(=C(Cl)c2ccccc2)c2ccccc2)cc1` [clomiphene], the “clinical benefit in headaches diagnosed as common migraine” value is given as “benefited”.
